# Assay results published in patent publication US4876247A, “Methlenediphosphonic acid derivatives, and antirheumatic pharmaceutical composition in which they are present and methods of using same” (Sanofi, priority 1984, dated 1989).
# Test system: adjuvant arthritis
# Assay: "In vivo" study: adjuvant arthritis (Mycobacterium tuberculosis) in rats, weight of the right rear paw
# Set-up: species or system male Sprague-Dawley rats
# Conditions: oral, 0.16 mmol/kg/day, 6 days/week for 3 weeks, versus untreated arthritic control rats
# Description: "IN VIVO" STUDY: ADJUVANT ARTHRITIS
# The injection of rats with mycobacterium causes a polyarthritis and in certain respects resembles human rheumatoid arthritis.
# A suspension of Mycobacterium tuberculosis (0.4 mg) in paraffin oil (0.05 ml) is injected intradermally into the tail of male Sprague-Dawley rats having a mean weight of 150 g.
# These rats are divided into 2 groups of 14 animals.
# The animals of the 1st group are treated 6 days/week for 3 weeks;
# either subcutaneously with doses ranging from 0.32 μmol to 32 μmol/kg/day,
# or orally with a dose of 0.16 mmol/kg/day. The second group receives placebo and serves as the control group.
# After 3 weeks of treatment, half the animals in each group are sacrificed; the other half are kept for 2 weeks without treatment and then sacrificed in turn.
# After the animals have been sacrificed, the right rear paw is removed at the tribiotarsal joint and then weighed. The mean and the standard error of the weights are determined for each half-group.
# The activity of the product is expresed as the percentage variation in the mean weight of the paws of the treated arthritic rats relative to that of the arthritic paws of the untreated rats (control rats).
# For each of the products tested, the therapeutic activity is expressed as the percentage inhibition of the weight of the paw after 3 weeks of treatment. […]
structure (smiles),measurement,setting,value
Cc1ccc(SCC(N)(P(=O)(O)O)P(=O)(O)O)cc1 [42 710 A],% Inhibition of the weight of the paw 2 weeks after the end of the treatment,then 2 weeks without treatment,7%
same,% Inhibition of the weight of the paw at the end of the treatment (3 weeks),,19%
